Consider 44 compounds from US20110224231A1, “Novel Lactams as Beta Secretase Inhibitors” (Pfizer Inc., priority 2008, published 2011).

Each structure is given as a SMILES string. Where a name gives a salt, the structure may show the parent alone. Read-outs that look alike come from different tables or passages of the source.

This test has as its target T1, soluble human BACE (Homo sapiens, UniProt P56817).
T1 construct: cells secreting human recombinant soluble BACE; made in house; conditioned medium
Description: BACE activity Cell Free Assay (ELISA of cleaved synthetic APP substrate). The format is biochemical. A general note: An ELISA detects its analyte on a solid surface through an enzyme-linked reagent.

Setting [1] is: Table 4, cell free, soluble human BACE, pH 4.5, 3 μM substrate, read-out: BACE Activity (Cell Free Assay IC50).

T1 sequence (P56817 46-457 limits assumed): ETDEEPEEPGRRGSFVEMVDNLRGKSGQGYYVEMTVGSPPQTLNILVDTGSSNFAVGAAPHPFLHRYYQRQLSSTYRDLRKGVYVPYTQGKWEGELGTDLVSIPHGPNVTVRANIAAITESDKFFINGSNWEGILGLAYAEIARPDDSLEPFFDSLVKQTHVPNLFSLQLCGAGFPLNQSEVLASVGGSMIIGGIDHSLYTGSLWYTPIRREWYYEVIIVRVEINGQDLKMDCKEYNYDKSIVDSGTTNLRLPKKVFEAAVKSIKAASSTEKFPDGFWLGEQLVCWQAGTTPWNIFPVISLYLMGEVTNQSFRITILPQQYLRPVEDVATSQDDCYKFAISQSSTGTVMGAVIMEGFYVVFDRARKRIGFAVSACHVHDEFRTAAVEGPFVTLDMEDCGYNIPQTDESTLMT

The term IC50 denotes the concentration at which inhibition is half-maximal. For the compound `CC1CC2(C=CC(=O)N2c2cccc(F)c2)CCN1Cc1ccc(OC(F)F)c(OC2CC2)c1` (racemic) [Example 80, Racemic (5R,7S),(5S,7R)-8-[3-(cyclopropyloxy)-4-(difluoromethoxy)benzyl]-1-(3-fluorophenyl)-7-methyl-1,8-diazaspiro[4.5]dec-3-en-2-one], the IC50 fell in the range of 100 to 300 µM.

For the compound `CC1CC2(CCC(=O)N2c2cccc(F)c2)CCN1Cc1nc(-c2cccc(Cl)c2)cs1` (racemic) [Example 81, Racemic (5R,7S),(5S,7R)-8-{[4-(3-chlorophenyl)-1,3-thiazol-2-yl]methyl}-1-(3-fluorophenyl)-7-methyl-1,8-diazaspiro[4.5]decan-2-one], the IC50 fell in the range of 100 to 300 µM.

In the case of `COC1(OC)CC(c2cccc(CN3CCC4(C=CC(=O)N4c4cccc(F)c4)CC3C)c2)C1` (racemic) [Example 82, Racemic (5R,7S),(5S,7R)-8-[3-(3,3-dimethoxycyclobutyl)benzyl]-1-(3-fluorophenyl)-7-methyl-1,8-diazaspiro[4.5]dec-3-en-2-one], the IC50 fell in the range of 100 to 300 µM.

For the compound `CC1CC2(C=CC(=O)N2c2cccc(F)c2)CCN1Cc1c[nH]c(-c2ccccc2)n1` (racemic) [Example 83, Racemic (5R,7S),(5S,7R)-1-(3-fluorophenyl)-7-methyl-8-[(2-phenyl-1H-imidazol-4-yl)methyl]-1,8-diazaspiro[4.5]dec-3-en-2-one], the IC50 is 100 to 300 µM.

For the compound `CC1CC2(CCC(=O)N2c2cccc(F)c2)CCN1Cc1c[nH]c2cc(C(F)(F)F)ccc12` (racemic) [Example 84, Racemic (5R,7S),(5S.7R)-1-(3-fluorophenyl)-7-methyl-8-{[6-(trifluoromethyl)-1H-indol-3-yl]methyl}-1,8-diazaspiro[4.5]decan-2-one], the IC50 lay within 100 to 300 µM.

Turning to `CC1CC2(C=CC(=O)N2c2cccc(F)c2)CCN1Cc1nc(-c2ccccc2Cl)cs1` (racemic) [Example 85, Racemic (5R,7S),(5S,7R)-8-{[4-(2-chlorophenyl)-1,3-thiazol-2-yl]methyl}-1-(3-fluorophenyl)-7-methyl-1,8-diazaspiro[4.5]dec-3-en-2-one], the IC50 was 100 to 300 µM.

`CC1CC2(CCC(=O)N2c2cccc(F)c2)CCN1Cc1cccc(OCc2nc(C3CC3)no2)c1` (racemic) [Example 86, Racemic (5R,7S),(5S,7R)-8-{3-[(3-cyclopropyl-1,2,4-oxadiazol-5-yl)methoxy]benzyl}-1-(3-fluorophenyl)-7-methyl-1,8-diazaspiro[4.5]decan-2-one] came in with an IC50 of 100 to 300 µM.

Take `CC(C)Oc1cccc(CN2CC[C@]3(CC(F)C(=O)N3c3cccc(F)c3)C[C@@H]2C)c1` (mixture of isomers) [Example 90, Racemic (5R,7S)(5S,7R)-3-fluoro-1-(3-fluorophenyl)-8-(3-isopropoxybenzyl)-7˜methyl˜1,8˜diazaspiro[4.5]decan˜2˜one, formate salt]: the IC50 is 10 to 100 µM.

`CC(C)Oc1cccc(CN2CC[C@@]3(C[C@@H]2C)CC(F)(F)C(=O)N3c2cccc(F)c2)c1` (racemic) [Example 91, Racemic (5R,7S)(5S,7R)˜3,3˜difluoro˜1˜(3˜fluorophenyl)˜8˜(3˜isopropoxybenzyl)˜7˜methyl˜1,8˜diazaspiro[4.5]decan˜2˜one, formate salt]: the IC50 fell in the range of 10 to 100 µM.

On to `CC(C)Oc1cccc(CN2CC[C@]3(CC(O)C(=O)N3c3cccc(F)c3)C[C@@H]2C)c1` (mixture of isomers) [Example 92, Racemic (3R/S,5R,7S)(3R/S,5S,7R)˜1˜(3˜fluorophenyl)˜3˜hydroxy˜8˜(3˜isopropoxybenzyl)-7-methyl-1,8-diazaspiro[4.5]decan-2-one, hydrochloride salt], for which the IC50 was 10 to 100 µM.

As for `CC(C)Oc1cccc(CN2CC[C@]3(C=CC(=O)N3c3ccccn3)C[C@@H]2C)c1` [#101], the IC50 fell in the range of 10 to 100 µM.

In turn, `CC(C)Oc1cccc(CN2CC[C@]3(C=CC(=O)N3c3ccncc3)C[C@@H]2C)c1` [#102] had an IC50 of 100 to 300 µM.

In the case of `CC(C)Oc1cccc(CN2CC[C@]3(C=CC(=O)N3c3ccc(Cl)cn3)C[C@@H]2C)c1` [#104], under setting [1], the half-inhibitory concentration (IC50) is 10 to 100 µM.

On to `Cc1ccc(N2C(=O)C=C[C@]23CCN(Cc2cccc(OC(C)C)c2)[C@@H](C)C3)nc1` [#105], for which the IC50 under setting [1] is 10 to 100 µM.

Compound `Cc1cccc(N2C(=O)C=C[C@]23CCN(Cc2cccc(OC(C)C)c2)[C@@H](C)C3)n1` [#107] yielded an IC50 of 1 to 10 µM.

Consider `Cc1ccnc(N2C(=O)C=C[C@]23CCN(Cc2cccc(OC(C)C)c2)[C@@H](C)C3)c1` [#108], for which the concentration for half-maximal inhibition (IC50) was 1 to 10 µM.

In turn, `Cc1ccc(N2C(=O)C=C[C@]23CCN(Cc2cccc(OC(C)C)c2)[C@@H](C)C3)cn1` [#109] had an IC50 of 10 to 100 µM.

With `Cc1cc(N2C(=O)C=C[C@]23CCN(Cc2cccc(OC(C)C)c2)[C@@H](C)C3)ccn1` [#110], the IC50 lay within 10 to 100 µM.

`CC(C)Oc1cccc(CN2CC[C@]3(C=CC(=O)N3c3cccnc3)C[C@@H]2C)c1` [#111] displayed an IC50 of 10 to 100 µM.

`COc1cc(F)cc(N2C(=O)C=C[C@]23CCN(Cc2cccc(OC(C)C)c2)[C@@H](C)C3)c1` [#112] returned an IC50 of 1 to 10 µM.

In the case of `CC(C)Oc1cccc(CN2CC[C@]3(C=CC(=O)N3c3cnn(C)c3)C[C@@H]2C)c1` [#113], the IC50 was 10 to 100 µM.

`Cc1cncc(N2C(=O)C=C[C@]23CCN(Cc2cccc(OC(C)C)c2)[C@@H](C)C3)c1` [#114] returned a concentration for half-maximal inhibition (IC50) of 1 to 10 µM.

`Cc1cccnc1N1C(=O)C=C[C@]12CCN(Cc1cccc(OC(C)C)c1)[C@@H](C)C2` [#115] came in with an IC50 of 10 to 100 µM.

In the case of `CC(C)Oc1cccc(CN2CC[C@]3(C=CC(=O)N3c3cncc(F)c3)C[C@@H]2C)c1` [#116], the IC50 is 1 to 10 µM.

In the case of `CC(C)Oc1cccc(CN2CC[C@]3(C=CC(=O)N3c3cncc(Cl)c3)C[C@@H]2C)c1` [#117], the IC50 lay in the range of 1 to 10 µM.

`CC(C)Oc1cccc(CN2CC[C@]3(C=CC(=O)N3c3cncc(C(F)(F)F)c3)C[C@@H]2C)c1` [#118]: the IC50 lay in the range of 10 to 100 µM.

The compound `CC(C)Oc1cccc(CN2CC[C@]3(C=CC(=O)N3c3cc(C(F)(F)F)ccn3)C[C@@H]2C)c1` [#119] registered an IC50 of 100 to 300 µM.

Compound `CC(C)Oc1cccc(CN2CC[C@]3(C=CC(=O)N3c3cncc(C#N)c3)C[C@@H]2C)c1` [#120] gave a concentration for half-maximal inhibition (IC50) of 10 to 100 µM.

On to `Cc1nc(N2C(=O)C=C[C@]23CCN(Cc2cccc(OC(C)C)c2)[C@@H](C)C3)cs1` [#121], for which the IC50 lay within 1 to 10 µM.

As to `CC(C)Oc1cccc(CN2CC[C@]3(C=CC(=O)N3c3ccn(C)n3)C[C@@H]2C)c1` [#122], the IC50 fell in the range of 10 to 100 µM.

Compound `CCn1cc(N2C(=O)C=C[C@]23CCN(Cc2cccc(OC(C)C)c2)[C@@H](C)C3)cn1` [#123] registered an IC50 of 100 to 300 µM.

As for `CC(C)Oc1cccc(CN2CC[C@]3(C=CC(=O)N3c3ccc(F)cn3)C[C@@H]2C)c1` [#124], the IC50 under setting [1] is 10 to 100 µM.

Take `CC(C)Oc1cccc(CN2CC[C@]3(C=CC(=O)N3c3cccc(C(F)(F)F)n3)C[C@@H]2C)c1` [#125]: under setting [1], the IC50 was in the range of 10 to 100 µM.

Turning to `Cc1cncc(N2C(=O)C=C[C@]23CCN(Cc2cccc(OC(C)C)c2)[C@@H](C)C3)n1` [#126], the IC50 under setting [1] lay within 10 to 100 µM.

`CC(C)n1ncc2ccc(CN3CC[C@]4(C=CC(=O)N4c4cnccn4)C[C@@H]3C)cc21` [#130, (5R,7S)-8-[(1-isopropyl-1H-indazol-6-yl)methyl]-7-methyl-1-pyrazin-2-yl-1,8-diazaspiro[4.5]dec-3-en-2-one]: the IC50 was in the range of 10 to 100 µM.

`C[C@H]1C[C@@]2(C=CC(=O)N2c2cnccn2)CCN1Cc1scnc1CC1CCC1` [#131, (5R,7S)-8-([4-(cyclobutylmethyl)-1,3-thiazol-5-yl]methyl)-7-methyl-1-pyrazin-2-yl-1,8-diazaspiro[4.5]dec-3-en-2-one]: the concentration for half-maximal inhibition (IC50) lay within 1 to 10 µM.

Consider `CC(C)Oc1cc(CN2CC[C@]3(C=CC(=O)N3c3cnccn3)C[C@@H]2C)ccc1O` [#132, (5R,7S)-8-(4-hydroxy-3-isopropoxybenzyl)-7-methyl-1-pyrazin-2-yl-1,8-diazaspiro[4.5]dec-3-en-2-one], for which the IC50 was in the range of 0.001 to 1 µM.

`CCCn1nccc1CN1CC[C@]2(C=CC(=O)N2c2cnccn2)C[C@@H]1C` [#133, (5R,7S)-7-methyl-8-[(1-propyl-1H-pyrazol-5-yl)methyl]-1-pyrazin-2-yl-1,8-diazaspiro[4.5]dec-3-en-2-one]: the IC50 lay in the range of 100 to 300 µM.

`C[C@H]1C[C@@]2(C=CC(=O)N2c2cnccn2)CCN1Cc1ccnn1CC(F)(F)F` [#134, (5R,7S)-7-methyl-1-pyrazin-2-yl-8-[(1-(2,2,2-trifluoroethyl)-1H-pyrazol-5-yl]methyl]-1,8-diazaspiro[4.5]dec-3-en-2-one] displayed an IC50 of 100 to 300 µM.

`Cc1cccc(N2C(=O)C=C[C@]23CCN(Cc2ccc(O)c(OC(C)C)c2)[C@@H](C)C3)n1` [#135, (5R,7S)-8-(4-hydroxy-3-isopropoxybenzyl)-7-methyl-1-(6-methylpyridin-2-yl)-1,8-diazaspiro[4.5]dec-3-en-2-one] came in with an IC50 of 0.001 to 1 µM.

`Cc1cccc(N2C(=O)C=C[C@]23CCN(Cc2ccc(O)c(-c4sccc4C)c2)[C@@H](C)C3)n1` [#136, (5R,7S)-8-[4-hydroxy-3-(3-methyl-2-thienyl)benzyl]-7-methyl-1-(6-methylpyridin-2-yl)-1,8-diazaspiro[4.5]dec-3-en-2-one] showed an IC50 of 0.001 to 1 µM.

In the case of `Cc1cccc(N2C(=O)C=C[C@]23CCN(Cc2scnc2CC2CCC2)[C@@H](C)C3)n1` [#137, (5R,7S)-8-{[4-(cyclobutylmethyl)-1,3-thiazol-5-yl]methyl}-7-methyl-1-(6-methylpyridin-2-yl)-1,8-diazaspiro[4.5]dec-3-en-2-one], the IC50 lay within 1 to 10 µM.

`CCCn1nccc1CN1CC[C@]2(C=CC(=O)N2c2cccc(C)n2)C[C@@H]1C` [#138, (5R,7S)-7-methyl-1-(6-methylpyridin-2-yl)-8-[(1-propyl-1H-pyrazol-5-yl)methyl]-1,8-diazaspiro[4.5]dec-3-en-2-one] showed an IC50 of 10 to 100 µM.

On to `Cc1cccc(N2C(=O)C=C[C@]23CCN(Cc2ccc4cnn(C(C)C)c4c2)[C@@H](C)C3)n1` [#139, (5R,7S)-8-[(1-isopropyl-1H-indazol-6-yl)methyl]-7-methyl-1-(6-methylpyridin-2-yl)-1,8-diazaspiro[4.5]dec-3-en-2-one], for which the IC50 lay within 100 to 300 µM.
